Measured values from US20260234115A1, “LIPID COMPOUNDS, COMPOSITIONS, AND USES THEREOF” (Liberate Bio, Inc., priority 2023, published 2026).
Marks after values point to notes of the source that are not given here.

Assays:
[1] = Dynamic light scattering: LNP particle size and PDI; format: physicochemical; details: LNP compositions for Formulation F2 Study
Method in brief: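 The LNPs were made by microfluidic mixing of the lipids in ethanol with mRNA in pH 4.0 citrate, then dialyzed into PBS pH 7.4. They were diluted in PBS pH 7.4, and particle size and PDI were measured by dynamic light scattering.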

[2] = Plate-based fluorescence (RiboGreen) assay: nucleic acid cargo content and encapsulation efficiency of LNPs; format: physicochemical; details: LNP compositions for Formulation F2 Study
Method in brief: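 LNPs made by microfluidic mixing of ethanolic lipids with mRNA in pH 4.0 citrate, dialyzed into PBS pH 7.4. Cargo quantified by RiboGreen fluorescence against a standard curve: Triton-lysed samples give total, TE-only samples give free cargo; encapsulation efficiency from their ratio.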

mouse organs = assay: In vivo activity screening in mice: organ mean total flux (p/s) of luciferase activity after injection of F2 LNP pools (Table 6, FIG. 7A-7C); details: luciferase mRNA
Method in brief: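 Luciferase output per organ is reported as mean total flux (p/s) from IVIS regions of interest. Organs were collected from perfused C57BL/6J mice and imaged 10-15 min after s.c. D-luciferin, 4-6 h after i.v. dosing. Dosing was 0.25-3 mg/kg luciferase mRNA in F2 LNP pools.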

Q: With CCCCC/C=C\C/C=C\CCCCCCCCC(CCCCCCCC/C=C\C/C=C\CCCCC)OC(=O)CCCN(C)C [MC3, reference compound] as the compound, how does the PDI [1] read?
A: The PDI was 0.098.

Q: And the “Particle Size (nm)” value [1]?
A: The value was 87.8 nm.

Q: What about the EE % [2] of the same compound?
A: Its EE % is 98%.

Q: What about the “Organ Mean Total Flux Femur” value (mouse organs; Mouse 1, dose 0.3 mg/kg) of the same compound?
A: Its value is 8.5 p/s (×10^6).

Q: And the “Organ Mean Total Flux Heart” value (mouse organs; Mouse 1, dose 0.3 mg/kg)?
A: The value was 2.8 p/s (×10^6).

Q: And the “Organ Mean Total Flux Kidney” value (mouse organs; Mouse 1, dose 0.3 mg/kg)?
A: Its value is 1.9 p/s (×10^6).

Q: What about the “Organ Mean Total Flux Liver” value (mouse organs; Mouse 1, dose 0.3 mg/kg) of the same compound?
A: The value was 6896 p/s (×10^6).

Q: What about the “Organ Mean Total Flux Lung” value (mouse organs; Mouse 1, dose 0.3 mg/kg) of the same compound?
A: The value was 17.2 p/s (×10^6).

Q: What about the “Organ Mean Total Flux Muscle” value (mouse organs; Mouse 1, dose 0.3 mg/kg) of the same compound?
A: The value was 7.5 p/s (×10^6).

Q: And the “Organ Mean Total Flux Pancreas” value (mouse organs; Mouse 1, dose 0.3 mg/kg)?
A: Its value is 2.6 p/s (×10^6).

Q: And the “Organ Mean Total Flux Spleen” value (mouse organs; Mouse 1, dose 0.3 mg/kg)?
A: The value was 22.3 p/s (×10^6).

Q: What about the “Organ Mean Total Flux Femur” value (mouse organs; Mouse 2, dose 1.0 mg/kg) of the same compound?
A: The value was 9.9 p/s (×10^6).

Q: What about the “Organ Mean Total Flux Heart” value (mouse organs; Mouse 2, dose 1.0 mg/kg) of the same compound?
A: Its value is 17.0 p/s (×10^6).

Q: And the “Organ Mean Total Flux Kidney” value (mouse organs; Mouse 2, dose 1.0 mg/kg)?
A: The value was 16.6 p/s (×10^6).

Q: What about the “Organ Mean Total Flux Liver” value (mouse organs; Mouse 2, dose 1.0 mg/kg) of the same compound?
A: The value was 15500 p/s (×10^6).

Q: What about the “Organ Mean Total Flux Lung” value (mouse organs; Mouse 2, dose 1.0 mg/kg) of the same compound?
A: Its value is 60.5 p/s (×10^6).

Q: What about the “Organ Mean Total Flux Muscle” value (mouse organs; Mouse 2, dose 1.0 mg/kg) of the same compound?
A: Its value is 16.6 p/s (×10^6).

Q: And the “Organ Mean Total Flux Pancreas” value (mouse organs; Mouse 2, dose 1.0 mg/kg)?
A: Its value is 7.4 p/s (×10^6).

Q: What about the “Organ Mean Total Flux Spleen” value (mouse organs; Mouse 2, dose 1.0 mg/kg) of the same compound?
A: The value was 23.0 p/s (×10^6).

Q: What about the “Organ Mean Total Flux Femur” value (mouse organs; Mouse 3, dose 1.0 mg/kg) of the same compound?
A: Its value is 6.9 p/s (×10^6).

Q: What about the “Organ Mean Total Flux Heart” value (mouse organs; Mouse 3, dose 1.0 mg/kg) of the same compound?
A: The value was 8.5 p/s (×10^6).

Q: And the “Organ Mean Total Flux Kidney” value (mouse organs; Mouse 3, dose 1.0 mg/kg)?
A: Its value is 7.3 p/s (×10^6).

Q: And the “Organ Mean Total Flux Liver” value (mouse organs; Mouse 3, dose 1.0 mg/kg)?
A: The value was 9707 p/s (×10^6).

Q: What about the “Organ Mean Total Flux Lung” value (mouse organs; Mouse 3, dose 1.0 mg/kg) of the same compound?
A: The value was 106.4 p/s (×10^6).

Q: And the “Organ Mean Total Flux Muscle” value (mouse organs; Mouse 3, dose 1.0 mg/kg)?
A: The value was 23.6 p/s (×10^6).

Q: What about the “Organ Mean Total Flux Pancreas” value (mouse organs; Mouse 3, dose 1.0 mg/kg) of the same compound?
A: The value was 2.7 p/s (×10^6).

Q: And the “Organ Mean Total Flux Spleen” value (mouse organs; Mouse 3, dose 1.0 mg/kg)?
A: Its value is 22.8 p/s (×10^6).

Q: What about the “Organ Mean Total Flux Femur” value (mouse organs; Mouse 5, dose 0.5 mg/kg) of the same compound?
A: The value was 4.8 p/s (×10^6).

Q: And the “Organ Mean Total Flux Heart” value (mouse organs; Mouse 5, dose 0.5 mg/kg)?
A: The value was 5.7 p/s (×10^6).

Q: What about the “Organ Mean Total Flux Kidney” value (mouse organs; Mouse 5, dose 0.5 mg/kg) of the same compound?
A: The value was 18.6 p/s (×10^6).

Q: And the “Organ Mean Total Flux Liver” value (mouse organs; Mouse 5, dose 0.5 mg/kg)?
A: The value was 5667 p/s (×10^6).

Q: What about the “Organ Mean Total Flux Lung” value (mouse organs; Mouse 5, dose 0.5 mg/kg) of the same compound?
A: Its value is 34.5 p/s (×10^6).

Q: What about the “Organ Mean Total Flux Muscle” value (mouse organs; Mouse 5, dose 0.5 mg/kg) of the same compound?
A: The value was 10.0 p/s (×10^6).

Q: And the “Organ Mean Total Flux Pancreas” value (mouse organs; Mouse 5, dose 0.5 mg/kg)?
A: Its value is 1.9 p/s (×10^6).

Q: And the “Organ Mean Total Flux Spleen” value (mouse organs; Mouse 5, dose 0.5 mg/kg)?
A: Its value is 17.6 p/s (×10^6).

Q: And the “Organ Mean Total Flux Femur” value (mouse organs; Mouse 6, dose 0.5 mg/kg)?
A: Its value is 3.3 p/s (×10^6).

Q: And the “Organ Mean Total Flux Heart” value (mouse organs; Mouse 6, dose 0.5 mg/kg)?
A: Its value is 5.2 p/s (×10^6).

Q: What about the “Organ Mean Total Flux Kidney” value (mouse organs; Mouse 6, dose 0.5 mg/kg) of the same compound?
A: Its value is 3.9 p/s (×10^6).

Q: And the “Organ Mean Total Flux Liver” value (mouse organs; Mouse 6, dose 0.5 mg/kg)?
A: The value was 4796 p/s (×10^6).

Q: And the “Organ Mean Total Flux Lung” value (mouse organs; Mouse 6, dose 0.5 mg/kg)?
A: Its value is 28.6 p/s (×10^6).

Q: What about the “Organ Mean Total Flux Muscle” value (mouse organs; Mouse 6, dose 0.5 mg/kg) of the same compound?
A: Its value is 8.2 p/s (×10^6).

Q: And the “Organ Mean Total Flux Pancreas” value (mouse organs; Mouse 6, dose 0.5 mg/kg)?
A: Its value is 3.6 p/s (×10^6).

Q: What about the “Organ Mean Total Flux Spleen” value (mouse organs; Mouse 6, dose 0.5 mg/kg) of the same compound?
A: Its value is 11.7 p/s (×10^6).

Q: What about the “Organ Mean Total Flux Femur” value (mouse organs; Mouse 9, dose 0.5 mg/kg) of the same compound?
A: The value was 3.8 p/s (×10^6).

Q: What about the “Organ Mean Total Flux Heart” value (mouse organs; Mouse 9, dose 0.5 mg/kg) of the same compound?
A: Its value is 4.1 p/s (×10^6).

Q: What about the “Organ Mean Total Flux Kidney” value (mouse organs; Mouse 9, dose 0.5 mg/kg) of the same compound?
A: The value was 2.1 p/s (×10^6).

Q: And the “Organ Mean Total Flux Liver” value (mouse organs; Mouse 9, dose 0.5 mg/kg)?
A: The value was 3903 p/s (×10^6).

Q: What about the “Organ Mean Total Flux Lung” value (mouse organs; Mouse 9, dose 0.5 mg/kg) of the same compound?
A: The value was 12.7 p/s (×10^6).

Q: What about the “Organ Mean Total Flux Muscle” value (mouse organs; Mouse 9, dose 0.5 mg/kg) of the same compound?
A: The value was 5.6 p/s (×10^6).

Q: What about the “Organ Mean Total Flux Pancreas” value (mouse organs; Mouse 9, dose 0.5 mg/kg) of the same compound?
A: Its value is 1.1 p/s (×10^6).

Q: What about the “Organ Mean Total Flux Spleen” value (mouse organs; Mouse 9, dose 0.5 mg/kg) of the same compound?
A: The value was 5.4 p/s (×10^6).

Q: What about the “Organ Mean Total Flux Femur” value (mouse organs; Mouse 11, dose 0.5 mg/kg) of the same compound?
A: The value was 2.2 p/s (×10^6).

Q: And the “Organ Mean Total Flux Heart” value (mouse organs; Mouse 11, dose 0.5 mg/kg)?
A: Its value is 2.9 p/s (×10^6).

Q: What about the “Organ Mean Total Flux Kidney” value (mouse organs; Mouse 11, dose 0.5 mg/kg) of the same compound?
A: The value was 1.0 p/s (×10^6).

Q: And the “Organ Mean Total Flux Liver” value (mouse organs; Mouse 11, dose 0.5 mg/kg)?
A: The value was 2603 p/s (×10^6).

Q: What about the “Organ Mean Total Flux Lung” value (mouse organs; Mouse 11, dose 0.5 mg/kg) of the same compound?
A: Its value is 12.1 p/s (×10^6).

Q: What about the “Organ Mean Total Flux Muscle” value (mouse organs; Mouse 11, dose 0.5 mg/kg) of the same compound?
A: Its value is 2.7 p/s (×10^6).

Q: And the “Organ Mean Total Flux Pancreas” value (mouse organs; Mouse 11, dose 0.5 mg/kg)?
A: Its value is 0.7 p/s (×10^6).

Q: And the “Organ Mean Total Flux Spleen” value (mouse organs; Mouse 11, dose 0.5 mg/kg)?
A: Its value is 4.0 p/s (×10^6).

Q: And the “Organ Mean Total Flux Femur” value (mouse organs; Mouse 12, dose 0.5 mg/kg)?
A: The value was 5.8 p/s (×10^6).

Q: And the “Organ Mean Total Flux Heart” value (mouse organs; Mouse 12, dose 0.5 mg/kg)?
A: Its value is 2.4 p/s (×10^6).

Q: And the “Organ Mean Total Flux Kidney” value (mouse organs; Mouse 12, dose 0.5 mg/kg)?
A: The value was 53.9 p/s (×10^6).

Q: What about the “Organ Mean Total Flux Liver” value (mouse organs; Mouse 12, dose 0.5 mg/kg) of the same compound?
A: The value was 2307 p/s (×10^6).

Q: What about the “Organ Mean Total Flux Lung” value (mouse organs; Mouse 12, dose 0.5 mg/kg) of the same compound?
A: Its value is 13.7 p/s (×10^6).

Q: What about the “Organ Mean Total Flux Muscle” value (mouse organs; Mouse 12, dose 0.5 mg/kg) of the same compound?
A: Its value is 4.1 p/s (×10^6).

Q: What about the “Organ Mean Total Flux Pancreas” value (mouse organs; Mouse 12, dose 0.5 mg/kg) of the same compound?
A: Its value is 9.6 p/s (×10^6).

Q: And the “Organ Mean Total Flux Spleen” value (mouse organs; Mouse 12, dose 0.5 mg/kg)?
A: The value was 8.6 p/s (×10^6).

Q: What about the “Organ Mean Total Flux Femur” value (mouse organs; Mouse 13, dose 0.5 mg/kg) of the same compound?
A: The value was 2.7 p/s (×10^6).

Q: What about the “Organ Mean Total Flux Heart” value (mouse organs; Mouse 13, dose 0.5 mg/kg) of the same compound?
A: Its value is 5.0 p/s (×10^6).

Q: What about the “Organ Mean Total Flux Kidney” value (mouse organs; Mouse 13, dose 0.5 mg/kg) of the same compound?
A: The value was 0.9 p/s (×10^6).

Q: What about the “Organ Mean Total Flux Liver” value (mouse organs; Mouse 13, dose 0.5 mg/kg) of the same compound?
A: Its value is 1767 p/s (×10^6).

Q: What about the “Organ Mean Total Flux Lung” value (mouse organs; Mouse 13, dose 0.5 mg/kg) of the same compound?
A: Its value is 8.3 p/s (×10^6).

Q: And the “Organ Mean Total Flux Muscle” value (mouse organs; Mouse 13, dose 0.5 mg/kg)?
A: The value was 2.8 p/s (×10^6).

Q: What about the “Organ Mean Total Flux Pancreas” value (mouse organs; Mouse 13, dose 0.5 mg/kg) of the same compound?
A: The value was 0.8 p/s (×10^6).

Q: What about the “Organ Mean Total Flux Spleen” value (mouse organs; Mouse 13, dose 0.5 mg/kg) of the same compound?
A: The value was 5.7 p/s (×10^6).

Q: What about the “Organ Mean Total Flux Femur” value (mouse organs; Mouse 14, dose 0.5 mg/kg) of the same compound?
A: Its value is 2.2 p/s (×10^6).

Q: What about the “Organ Mean Total Flux Heart” value (mouse organs; Mouse 14, dose 0.5 mg/kg) of the same compound?
A: Its value is 4.4 p/s (×10^6).

Q: And the “Organ Mean Total Flux Kidney” value (mouse organs; Mouse 14, dose 0.5 mg/kg)?
A: Its value is 26.8 p/s (×10^6).

Q: And the “Organ Mean Total Flux Liver” value (mouse organs; Mouse 14, dose 0.5 mg/kg)?
A: Its value is 2037 p/s (×10^6).

Q: And the “Organ Mean Total Flux Lung” value (mouse organs; Mouse 14, dose 0.5 mg/kg)?
A: The value was 19.3 p/s (×10^6).

Q: And the “Organ Mean Total Flux Muscle” value (mouse organs; Mouse 14, dose 0.5 mg/kg)?
A: The value was 5.7 p/s (×10^6).

Q: What about the “Organ Mean Total Flux Pancreas” value (mouse organs; Mouse 14, dose 0.5 mg/kg) of the same compound?
A: Its value is 1.2 p/s (×10^6).

Q: What about the “Organ Mean Total Flux Spleen” value (mouse organs; Mouse 14, dose 0.5 mg/kg) of the same compound?
A: The value was 8.5 p/s (×10^6).
